Test results taken from patent US20050214285A1, “Epitopes or mimotopes derived from the C-epsilon-3 or C-epsilon-4 domains of IgE, antagonists thereof, and their therapeutic uses” (SmithKline Beecham Biologicals, s.a. and Peptide …, priority 1999, published 2005).

System: PTmAb0005
Assay: Phage display ranking of peptide ligands for PTmAb0005
Assay type: binding
Conditions: IgEC67-8 mutants (Table 9)
Protocol: (§1) Phage display libraries were used to map the binding sites of the monoclonal antibodies using three different phage libraries, displaying either the XCX15, XCX10 or XAX10 peptide sequence (where X is any amino acid) at the N-terminus of the phage gVIIIp. Tables 6 and 7 show the results of selecting for peptide ligands with the anti human IgE monoclonal antibodies […]. […]
This was performed by introducing random mutations by PCR mutagenesis and sub-cloning into the Fuse 5 vector for minor filamentous phage protein gIIIp display. These, and other results, confirmed the importance of the amino acids within IgEC67 which aligned with the Cε2 epitope. […] Mutations in other sites had little effect on the affinity to PTmAb0005.
(§2) This involved a DNA sub-cloning transfer from the major coat protein (gVIIIp) filamentous phage display vector to a lower copy number minor phage coat protein (gIIIp) display vector with a random PCR step. […] Included in the tables are ranking orders and also BIAcore affinities where available.

| Sequence | Rel. Rank A | Rel. Rank B |
| --- | --- | --- |
| ADGAGCFINKQMADSELCPREPAEA [Peptide 5-16, IgEC67-8 mutant clone] | 1.29 | 1.83 |
| ADGAGCFINKQMADWELCPREAAEA [Peptide 5-10, IgEC67-8 mutant clone] | 1.05 | 1.83 |
| ADGAGCFKNKQMVDSELCARQAAEA [Peptide 1-16, IgEC67-8 mutant clone] | 1.14 | 1.17 |
| ADGAGCFIEKQMADMELCQRETAEA [Peptide 1-1, IgEC67-8 mutant clone] | 1.04 | 1.29 |
| ADGAGCFIKKQMADLELCPREAWEA [Peptide 4-1, IgEC67-8 mutant clone] | 1.24 | 1.52 |
| ADGAGCFINKQMADMELCPREAAEA [Peptide 2-3, IgEC67-8 mutant clone] | 1.03 | 1.31 |
| ADGAGCFINKQMADLELCTREAAEA [Peptide 3-11, IgEC67-8 mutant clone] | 1.54 | 2.02 |
| ADGAGCSIHTQMADWERCLREGAEA [6-12,5-8] | 0.93 | 0.67 |
| ADGAGCFINKQMSDFELCPREAGEA [Peptide 2-13, IgEC67-8 mutant clone] | 1.56 | 2.14 |
| ADGAGCFINKQMADLELCPSQAAEA [Peptide 4-9, IgEC67-8 mutant clone] | 1.38 | 1.70 |
| ADGAGCFINKQMADLELCPRQAAEA [3-1,3-9,3-10, IgEC67-8 mutant clone] | 1.54 | 1.85 |
| ADGAGCFIEKQMADMELCQARAAEA [Peptide 1-8, IgEC67-8 mutant clone] | 1.08 | 1.32 |
| ADGAGCFINKQMADWELCPREGAEA [Peptide 2-15, IgEC67-8 mutant clone] | 1.44 | 1.57 |
| ADGAGCFINKQMADLELCPARAAEA [Peptide 1-7, IgEC67-8 mutant clone] | 0.91 | 1.25 |
| ADGAGCFISPQLADWKRCMREAAEA [6-9,5-1,6-2,6-8,6-4] | 1.53 | 1.19 |
| ADGAGCFIDKQMADLELCPRAAAEA [1-9,2-5, IgEC67-8 mutant clone] | 1.21 | 1.41 |

| Sequence | Rel. Rank A | Rel. Rank B |
| --- | --- | --- |
| ADGAGCFINKQMADSELCPAAAAEA [Peptide 1-10, IgEC67-8 mutant clone] | 1.10 | 1.08 |
| ADGAECFINKQMADRELCAREVAEA [Peptide 2-12, IgEC67-8 mutant clone] | 1.22 | 1.50 |
| ADGAGCFINKQMADLELCPREAAEA [2-8,1-13,4-11,1-14, IgEC67-8 sub-library clone] | 1.00 | 1.00 |
| ADGAGCFRNKQMADLELCPREAAEA [Peptide 1-6, IgEC67-8 mutant clone] | 0.95 | 1.16 |
| ADGAGCFINNQMADLELCPRGGAEA [Peptide 1-11, IgEC67-8 mutant clone] | 1.45 | 1.32 |
| ADGAGCFINRQMADPELCPREAAEA [Peptide 5-11, IgEC67-8 mutant clone] | 1.09 | 1.97 |
| ADGAGCSIHRQMADWERCLREGAEA [Peptide 6-10] | 0.91 | 0.69 |
| ADGAECFINKQRADLELCPGEAAEA [4-2,4-3, IgEC67-8 mutant clone] | 1.11 | 1.60 |
| ADGAGCFINKQMADLELCPREGAEA [1-4,1-2,1-12, IgEC67-8 mutant clone] | 1.37 | 1.39 |
| ADGAGCFQNKQMADLELCPREAAEA [Peptide 1-5, IgEC67-8 mutant clone] | 1.13 | 1.73 |
| ADGAECFINRQMADLELCGREAAEA [Peptide 4-4, IgEC67-8 mutant clone] | 0.69 | 1.03 |
| ADGAGCFINRQLADMELCSRGAAEA [2-11,2-4,2-10,2-7, IgEC67-8 mutant clone] | 0.79 | 1.39 |
| ADGAGCFINMQMADQELCPRAAAEA [Peptide 1-3, IgEC67-8 mutant clone] | 1.73 | 1.31 |
| ADGAGCFINKQMADLELCRREAGEA [2-9,2-6, IgEC67-8 mutant clone] | 1.19 | 1.54 |
| ADGAGCFINNQMADLELCPREAAEA [Peptide 5-2, IgEC67-8 mutant clone] | 1.04 | 1.24 |

Same assay, conditions: IgEC67 mutants (Table 8)

| Sequence | PTmAb Rank 0005 |
| --- | --- |
| ADGAGCFMNNQLADWELCPRAAAEA [IgEC67-6] | 1.9 |
| ADGAGCFMNKQMADLELCPRTAAEA [IgEC67-1] | 4.1 |
| ADGAGCFMNKQMADWEMCPRAAAEA [IgEC67-11] | 1.8 |
| ADGAACFMNKQMADLELCPRVAAEA [IgEC67-2] | 3.2 |
| ADGAECFMNKQLADSELCPRVAAEA [IgEC67-13] | 1.1 |

Same assay, conditions: primary phage display biopannings (Table 6)

| Sequence | Rank (ECL) PTmAb0005 |
| --- | --- |
| SMGQEVDRELV [ESB40] | 0 |
| GQMMDTELLNR [ESB1/6etc] | 0 |
| CAPGMGCWESVK [ESB13] | 0 |
| CCEVDDFPTHHPGWTLR [ESC4] | 0 |
| HCCRIDREVSGA [ESB24] | 0 |
| GGWQESDIPGR [ESB32] | 0 |
| SMGQKVDRELV [ESB9] | 0 |
| YQQRDLELLAE [ESB18] | 0 |
| CCQRDVELVFGS [ESD38] | 0 |
| CCESDIPLNELHALADP [IgEC70] | 0 |
| TCCVTDIPPPDYEQSLG [IgEC83] | 0 |
| ECKVDGQLSDSPLLRNN [ESC45] | 0 |
| HCKNEFKKGQWTYSCSD [IgEC43] | 0 |
| RGRNQIMDLEI [ESB29/36] | 0 |
| CCITDVPQGVMYKGSPD [ESC18] | 0 |
| CCKSDIPSPVTQFNTMK [IgEC64] | 0 |
| REQQISDVPRV [ESB26] | 0 |

| Sequence | Rank (ECL) PTmAb0005 |
| --- | --- |
| ECRGPNMQMQDHCPTTD [IgEC9] | 10 |
| CCLSDDAPTLPVRR [IgEC75] | 0 |
| AENDQMVDWEI [SB21/33/31] | 0 |
| SCNLNHQSCDIPPVKQI [ESC46] | 0 |
| CQAMDAEILNQV [ESB12] | 0 |
| CCVMDIEVRGSA [ESD14] | 0 |
| CCMSDTPDISRLPVPDS [IgEC72] | 0 |
| QIDRQITDTLL [ESB15] | 0 |
| CCMTDDPMDPNSTWAIR [ESC12] | 0 |
| CCVSDEPAGVRD [ESD6/10/40] | 0 |
| CCRADFEVGNGG [ESD15] | 0 |
| CCVMDLELASGF [ESD36] | 0 |
| CCMADQELDLGHNAANA [ESC20] | 0 |
| CCMTDDPMYTNSTWAIR [ESC43] | 0 |
| CCVDDTPNSGLAMRVSK [ESC1] | 0 |
| SMEGQVRDIQV [ESB7] | 0 |

System: PTmAb0011
Assay: Phage display ranking of peptide ligands for PTmAb0011
Assay type: binding, mouse
Conditions: IgEC67 mutants (Table 8)
Source text: as §1, §2

| Sequence | PTmAb Rank 0011 |
| --- | --- |
| ADGAGCFMNNQLADWELCPRAAAEA [IgEC67-6] | 1.6 |
| ADGAGCFMNKQMADLELCPRTAAEA [IgEC67-1] | 2.2 |
| ADGAGCFMNKQMADWEMCPRAAAEA [IgEC67-11] | 1.9 |
| ADGAACFMNKQMADLELCPRVAAEA [IgEC67-2] | 1.8 |
| ADGAECFMNKQLADSELCPRVAAEA [IgEC67-13] | 0.8 |

Same assay, conditions: primary phage display biopannings (Table 7)

| Sequence | Rank (ECL) PTmAb0011 |
| --- | --- |
| TCGQSELRCASLETHHV [EEC55] | 0 |
| MCQGWEIVSECW [EED57] | 0 |
| QCVRDGTRKVCM [EED33] | 7 |
| DCVVDGDRLVCL [EED34/104] | 3 |
| FCPEPICSPPLSRMTLS [EEC147] | 883 |
| TCLVDRQESDVC [EED50] | 6 |
| RCEQGALRCVGE [EED41/56] | 0 |
| VCDECVSRELAL [EED35/53/164] | 330 |
| GCPTWPRVGDHC [EED36] | 52 |
| RCDQQLPRDSYTFCMMS [EEC115/3/48] | 438 |
| ACFSRNGQVTDVPHSCY [EEC41] | 31 |
| ECNQNLSGSLRHVDLNC [EEC40] | 547 |
| SCQGREVRRECW [EED183] | 596 |
| ECPRWPLMGDGC [EED139] | 26 |
| VCPPGWKNLGCN [EED51] | 0 |
| RCQSARVVPECW [EED131/138/102] | 32 |
| KCPTYPKPNDRCLWPVP [EEC135] | 19 |
| NCNDNPMLDCMPAWSS [EEC5] | 0 |
| VCDECVSRELAL [EED35/153/164] | 118 |
| WCLEPECAPGLL [EED38] | 330 |
| GCQVGELVWCRE [EED134] | 14 |
| GCPMWPQPDDEC [EED132] | 28 |
| HCQQVFFPQDYLWCQRG [EEC36] | 158 |
| NCQDQMLREDAGCWSKI [EEC40A] | 80 |
| YCPKYPLEGDCLLDNDY [EEC116] | 4 |
| DCEEPMCSPVLLQKLKP [EEC17/47/25] | 147 |
| SCAPSGDCGYKG [EED18/47/48] | 31 |
| DCLSKGQMADLC [EED147/173] | 281 |
| HCEEPEYSPATRVFCGR [EEC51/48/53] | 75 |
